We go through ten compounds from US4130650A, “Antiarrhythmic method of use” (priority 1976, dated 1978).

In general, LD50 refers to the dose expected to kill half of the subjects tested.

The test system of data set [1] is isolated auricles of guinea pigs. In words: Reduction of the maximum driving frequency (MDF) of isolated auricles of guinea pigs. The class given is cell-based, guinea pig. The note with it: Cavia porcellus; isolated left auricles; tyrode solution, 37° C., pH 7.4; cumulative addition; MDF 5 and 10 minutes after adding; read-out: EC50: concentration causing a 50% decrease of the maximum driving frequency (MDF). The protocol:
1. reduction of the maximum driving frequency of isolated auricles of guinea pigs The tests were carried out using an adaption of the method of DAWES (Brit. J. Pharmacol.1, 90, 1946). Guinea pigs of both sexes, body weight between 300 and 400 gm were killed by a blow on the neck. The left auricles were quickly removed and put into an organ bath of 100 ml. The organ bath was filled with tyrode solution, which was infused with a mixture of 98% of oxygen and 2% of carbon dioxide. […] The auricles were stimulated with square wave impulses of 1 millisecond duration at a voltage 200% higher than the threshold voltage and a frequency of 1 Hz (Hugo Sachs, Stimulator II). A weight of 0.4 gm was applied to the auricles and the contractions were continuously measured isometrically by means of a force displacement transducer (Grass Ft 03) and recorded on a Grass polygraph (model 5). After sufficient equilibration time (15 min.) the stimulation rate was increased every 10 seconds by 1 Hz until the maximum driving frequency (MDF) was reached. The MDF is defined as the stimulation frequency, where every stimulation is still answered by a contraction. The MDF was determined before and 5 and 10 minutes after adding the test compound. The test compound was added cumulatively to the organ bath. The concentration causing a 50% decrease of the MDF (EC50) was calculated from a dose-response curve.

Data set [2] concerns ouabain-induced ventricular arrhythmia in dogs. Description: Suppression of ouabain-induced ventricular arrhythmia in dogs. The format is in vivo, dog. The note with it: 12 dogs. The protocol:
(§1) 3. Suppression of ouabain-induced ventricular arrhythmia in dogs
(§2) According to the method described by ALLEN, et al. (supra), dogs were anesthetized by subcutaneous injection of morphine sulfate (0.5 mgm/kg), followed by intravenous injection of pentobarbitone (20 mgm/kg). The animals were given artificial respiration with room air from a Starling pump via a cuffed endotracheal tube. The electrocardiogram (lead II) was recorded on a Devices recorder (Type M8 or M 4). Test compound administration was through a polyethylene catheter inserted in a foreleg vein.
(§3) Observations were made on 12 dogs. Ventricular tachycardia was produced by intravenous injection of ouabain, first 40 mgm/kg, followed after 30 minutes by 20 mgm/kg and by 10 mgm/kg every 15 minutes until ventricular tachycardia was established. 10 minutes after the last ouabain injection, the test compound was continuously infused intravenously from a motor-driven syringe at a rate of 0.2 mgm/kg per minute, until sinus rhythm returned. The mean dose of ouabain to produce ventricular tachycardia was 60 ± 2.8 mg/kg. The mean dose of compound A required to convert the ventricular tachycardia to sinus rhythm was 0.76 ± 0.18 mg/kg i.v.

The subject of data set [3] is adrenalin-induced ventricular arrhythmia in dogs. Description: Prevention of ventricular arrhythmia provoked by adrenalin in dogs under halothane anesthesia. The format is in vivo, dog. The note with it: Canis lupus familiaris, iv, 5 min, i.v., 4 dogs, adrenalin 5 minutes after compound, read-out: mean dose that abolished the adrenalin arrhythmias. On the procedure: (§4) 2. prevention of ventricular arrhythmia provoked by adrenalin in dogs under halothane anesthesia
(§5) According to the method described by ALLEN, et al in Brit. J. Pharmacol. 45, 561 (1972), dogs were anesthetized by subcutaneous injection of 0.5 mgm/kg morphine sulfate and by intravenous injection of 20 mg/kg pentobarbitone. The animals were given artificial respiration with room air from a Starling pump via a cuffed endotracheal tube. The electrocardiogram (lead II) was recorded on a Devices recorder (Type M 8 or M 4). The test compound was injected through a polyethylene catheter inserted into a foreleg vein.
(§6) Observations were made on 4 dogs. The artificial respiration was continued adding 1% halothane to the room air. 15 minutes later adrenalin was injected at doses of 0.2 and increased to 0.4, 0.8, 1.2, 1.6, 2.0, 2.4 and 2.8 […], at intervals of 7 to 10 minutes between each dose, until ventricular tachycardia had been produced. After the arrhythmia-producing dose of adrenalin had been established, compound A was injected intravenously. 5 minutes later the adrenalin injection was repeated, using the same dose. The dose of the test compound was increased to obtain the minimum dose which prevented the adrenalin-induced arrhythmia.

A short description of data set [4]: Acute i.v. toxicity in mice. The note with it: mouse, in vivo, iv, tail vein, LITCHFIELD and WILCOXON, read-out: median lethal dose (LD50). The protocol:
4. Acute i.v. toxicity in mice
Mice of both sexes having a body weight of 20 to 25 gm were used. The test compound was dissolved in distilled water and injected into the mice with a volume of 0.1 ml/10 gm body weight by way of a tail vein. Each dose was injected into 10 mice. The number of dead animals was determined and the median lethal dose (LD50) was calculated using the method of LITCHFIELD and WILCOXON [J. Pharmac. Exp. Ther. 96, 99 (1949)].

A further data set is described as follows: in vivo. The settings on record: dog, in vivo, iv. The format is in vivo, dog. The protocol: as §4, §5, §6, §1, §2, §3
(§7) The lowest therapeutic dose was 0.1 mgm/kg i.v., which is about 100 to 200 times smaller than the mean toxic dose.

Another data set has as its system anesthetized dogs. Description: animal or person. The class given is in vivo, dog. On the procedure:
as §4, §5, §6, §1, §2, §3, §7

Each structure is given as a SMILES string. In brackets after ≈: the same amount, converted by molar mass. Counter-ions that a name gives are not always drawn.

Consider `C(=Cc1ccccc1OCCN1CCOCC1)c1ccccn1` [C, 2-[0-(β-Morpholino-ethoxy)-styryl]-pyridine dihydrochloride], for which, in data set [1], the EC50 worked out at 33 µg/mL.

Consider `C[C@@H]1O[C@@H](O[C@H]2C[C@@H](O)[C@]3(CO)[C@H]4[C@H](O)C[C@]5(C)[C@@H](C6=CC(=O)OC6)CC[C@]5(O)[C@@H]4CC[C@]3(O)C2)[C@H](O)[C@H](O)[C@H]1O` [ouabain, reference compound], for which the “mean dose of ouabain to produce ventricular tachycardia” value in data set [2] (intravenous) turned out to be 60 ± 2.8 mg/kg.

Consider `CN(C)CCOc1ccccc1C=Cc1ccc2ccccc2n1.Cl` [F, 2-[o-(β-Dimethylamino-ethoxy)-styryl]-quinoline hydrochloride], for which the EC50 in data set [1] is 10 µg/mL.

Consider `CC(=Cc1ccccc1OCCN(C)C)c1ccccn1` [D, 1-[o-(β-Dimethylamino-ethoxy)-phenyl]-2-(pyridyl-2)-propene-1 monohydrochloride], for which the EC50 in data set [1] was 3.1 µg/mL.

As to `CNCCOc1ccccc1C=Cc1ccccn1` [B, 2-[0-(β-Methylamino-ethoxy)-styryl]-pyridine dihydrochloride], the EC50 in data set [1] is 8.3 µg/mL.

In the case of `CN(C)CCOc1ccccc1C=Cc1nc2ccccc2n1C.Cl.Cl` [G, 2-[o-(β-Dimethylamino-ethoxy)-styryl]-1-methyl-benzimidazole dihydrochloride], in data set [1], the EC50 worked out at 9 µg/mL.

For the compound `CN(C)CCOc1ccccc1C=Cc1ccccc1.Cl` [I, 2-(2-Dimethylamino-ethoxy)-stilbene hydrochloride], the EC50 in data set [1] came to 10 µg/mL.

Regarding `CN(C)CCOc1ccccc1C=Cc1cnccn1` [H, 2-[o-(β-Dimethylamino-ethoxy)-styryl] -pyrazine], the EC50 in data set [1] amounted to 25 µg/mL (≈ 92.8 µM).

For `Cc1cccc(C=Cc2ccccc2OCCN(C)C)n1.Cl` [Compound E, 2-[o-(β-Dimethylamino-ethoxy)-styryl]-6-methyl-pyridine hydrochloride], the EC50 in data set [1] came out at 6.3 µg/mL.

In the case of `CN(C)CCOc1ccccc1C=Cc1ccccn1.Cl` [A, 2-[o-(β-Dimethylamino-ethoxy)-styryl]-pyridine monohydrochloride], the EC50 in data set [1] was found to be 3.8 µg/mL. Moreover, the minimal effective dose in data set [3] was determined as 0.18 ± 0.04 mg/kg; in data set [2] (Canis lupus familiaris, iv, i.v. infusion 0.2 mgm/kg per minute, ouabain-induced tachycardia, read-out: mean dose required to convert the ventricular tachycardia to sinus rhythm), 0.76 ± 0.18 mg/kg; in the data set with anesthetized dogs (Canis lupus familiaris, iv, read-out: lowest therapeutic dose), 0.1 mg/kg. The LD50 in data set [4] came out at 25 mg/kg. In the data set “in vivo”, the selectivity ratio was 100 to 200. Further, the “antiarrhythmic effectiveness (in words)” value with anesthetized dogs (anesthetized dogs) is listed as “very effective antiarrhythmic compound”. Further, the “therapeutic ratio (in words)” value with anesthetized dogs (dog, in vivo, iv) was “excellent therapeutic ratio”.
